Source: patent US20200023000A1, “SYNERGISM OF GOS AND POLYFRUCTOSE” (N.V. Nutricia, priority 2004, published 2020)

How the values were obtained:
[1] = tested on: muc-2 expression in a CCD18/T84 co-culture; test: muc-2 expression in CCD18/T84 co-culture; assay type: cell-based
Protocol: (§1) The effect of lactate and a SCFA mixture was analysed as described in Willemsen, L E M, Koetsier M A, van Deventer S J H, van Tol E A F (2003), Gut 52:1442-1447, with the following modifications: Lactate and a mixture of acetate/propionate/butyrate 90/5/5 was tested. For the mucus production experiments a co-culture of CCD18 and T84 cells was used, whereas for the PGE1 and PGE2 production experiments a monoculture of CCD18 cells was used.

[2] = tested on: PGE1 and PGE2 response in CCD18 cells; test: Spontaneous PGE1 and PGE2 response in CCD18 cells; assay type: cell-based; conditions: n=7
Protocol: as §1

[3] = tested on: distal and proximal part of the colon; test: Contraction of isolated colon segments in organ bath; design: species or system Male Wistar rats; conditions: for Tension of tonic contractions (FIG. 5): increasing concentrations up to 100 mM, effect higher in distal than proximal colon
Text: Male Wistar rats (CKP/Harlan, Wageningen/Horst, Netherlands) were housed under conditions of controlled temperature and light cycle and were provided free access to food pellets and water. Animals were anaesthetised by a mixture of N2O, O2 and isofluran, the abdomen was opened and the colon was removed immediately. The tissue was placed in Krebs-Henseleit buffer pH 7.4 (composition in mM: 118.0 NaCl, 4.75 KCl, 1.18 MgSO4, 2.5 CaCl2, 10 glucose, 1.17 KH2PO4 and 24.9 NaHCO3).
The colon was cut into a distal and a proximal portion and was rinsed with Krebs-Henseleit buffer while gently squeezing out faecal content. To approximate in vivo conditions as closely as possible, 1 cm fully intact segments were attached longitudinally to an isometric force transducer (F30 type 372, HSE, Germany) in 20 ml water-jacketed (37° C.) organ baths (Schuler, HSE, Germany) containing Krebs-Henseleit buffer gassed continuously with 95% O2-5% CO2. The segments were gradually stretched to a resting tension of 1 g and allowed to equilibrate for 45 minutes with intermittent washings. The tensions of the segments in rest and in response to different stimuli were amplified by a transducer amplifier module (HSE, Germany) and recorded on a multi-pen recorder (Rikadenki, HSE, Germany).
The segments were incubated with 40 mM KCl for 5 minutes and the contractile responses were measured. KCl was washed out by three consecutive washes at 5 minutes intervals. The segments were then incubated with increasing concentrations up to 100 mM of acetate or sodium-L-lactate. The acid solutions were prepared freshly in distilled water. NaOH was added to acetate to obtain a neutral pH. At the end of the incubation with a fatty acid, 40 mM KCl was added to determine whether the contractile response to KCl was influenced by the fatty acid. Before a new incubation the segments were allowed to equilibrate for 45 minutes in fresh Krebs-Henseleit buffer with intermittent washings.
The experimental protocol consisted of two proximal and two distal sections of the colon. For data analysis (n=3), the contraction level induced by the stimuli was defined as the tension in g after 5 minutes incubation. Data obtained from identical segments (proximal or distal) were used to calculate a mean value and each segment served as its own control sample.

[4] = proximal part of the colon, 25 mM
[5] = proximal part of the colon, concentrations higher than 25 mM

Compound: C[C@H](O)C(=O)O [L-lactate]
- Increase of muc-2 expression (FIG. 4a) ([1]; at 0.5, 1 and 4 mM, n=6): statistically significant
- MUC-2 expression, dose dependence (FIG. 4A) ([1]; co-culture of CCD18 and T84 cells): dose dependently induces MUC-2 expression
- Increase of PGE1 (FIG. 4b) ([2]; at 100 μM): statistically significant
- Increase of PGE2 (FIG. 4b) ([2]; at 250 μM, P<0.05): statistically significant

Compound: CC(=O)[O-].[Na+] [sodium acetate, reference compound]
- Number of spontaneous (phasic) contractions ([3]; distal part of the colon): no effects are observed
- Tension of tonic contractions (FIG. 5) [3]: decrease the tension of tonic contractions
- Number of spontaneous (phasic) contractions ([3]; proximal part of the colon): decrease
- Tonic contractions as a response to KCl [3, 4]: comparable in the presence or absence
- Tonic contractions as a response to KCl [3, 5]: significant relaxation

Compound: C[C@H](O)C(=O)[O-].[Na+] [sodium-L-lactate]
- Number of spontaneous (phasic) contractions ([3]; distal part of the colon): no effects are observed
- Tension of tonic contractions (FIG. 5) [3]: decrease the tension of tonic contractions
- Number of spontaneous (phasic) contractions ([3]; proximal part of the colon): decrease
- Tonic contractions as a response to KCl [3, 4]: comparable in the presence or absence
- Tonic contractions as a response to KCl [3, 5]: significant relaxation
